# Results published in patent US20150141336A1, “Pancreatic Peptide Compounds and Use” (Novo Nordisk A/S, priority 2012, published 2015).
# Numbered stars: 1 amine (or outer) side, 2 acyl side, 3 side chain; on linkers, the order of the positions; unused ones are H or OH. Side chains are listed from the residue outwards. Peptide text beside a SMILES is read from it. * marks the point of attachment. C18 diacid = O=C(O)CCCCCCCCCCCCCCCCC(=O)*; γGlu = O=C(O)[C@H](CCC(=O)[*:2])N[*:1]; AEEA = NCCOCCOCC(=O)O
# Test: Assay (II) PK i.v. minipig, in vivo half-life
# Design: species or system Göttingen mini-pigs
# Conditions: male, Göttingen, minipig, iv, Half-life minipig, Assay (II)
# Summary of the method: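 Plasma levels after a single 6 nmol/kg intravenous dose in five male Göttingen mini-pigs were measured by TFC/LC/MS/MS against spiked-plasma calibration, sampling to 240 h. Vehicle: 50 mM K2HPO4, 0.05% tween 80, pH 8.0. Individual profiles analysed non-compartmentally for half-life.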
row,Structure (SMILES),half-life [h]
1,CC[C@H](C)[C@H](NC(=O)[C@H](Cc1ccc(O)cc1)NC(=O)[C@H](CCCNC(=N)N)NC(=O)[C@H](CCCNC(=N)N)NC(=O)[C@H](CC(C)C)NC(=O)[C@H](CC(=O)O)NC(=O)[C@H](C)NC(=O)[C@H](C)NC(=O)[C@H](Cc1ccc(O)cc1)NC(=O)[C@H](CCC(N)=O)NC(=O)[C@H](C)NC(=O)[C@H](CCSC)NC(=O)[C@H](CCC(N)=O)NC(=O)[C@H](CCC(=O)O)NC(=O)[C@@H]1CCCN1C(=O)[C@@H](NC(=O)[C@H](C)NC(=O)[C@H](CC(N)=O)NC(=O)[C@H](CC(=O)O)NC(=O)CNC(=O)[C@@H]1CCCN1C(=O)[C@H](Cc1ccc(O)cc1)NC(=O)[C@@H](NC(=O)[C@@H]1CCCN1C(=O)[C@H](CCC(=O)O)NC(=O)[C@H](CC(C)C)NC(=O)[C@@H]1CCCN1)C(C)C)[C@@H](C)O)C(=O)N[C@@H](CCCCNC(=O)COCCOCCNC(=O)COCCOCCNC(=O)CC[C@H](NC(=O)CCCCCCCCCCCCCCCCC(=O)O)C(=O)O)C(=O)N[C@@H](CCSC)C(=O)N[C@@H](CC(C)C)C(=O)N[C@H](C(=O)N[C@@H](CCCNC(=N)N)C(=O)N1CCC[C@H]1C(=O)N[C@@H](CCCNC(=N)N)C(=O)N[C@@H](Cc1ccc(O)cc1)C(N)=O)[C@@H](C)O [Compound E] (H-PLEPVYPGDNATPEQMAQYAADLRRYIK([AEEA-AEEA-γGlu-C18 diacid])MLTRPRY-NH2; N-terminus and C-terminus assumed),110
2,CC[C@H](C)[C@H](NC(=O)[C@H](CCCCNC(=O)COCCOCCNC(=O)COCCOCCNC(=O)CC[C@H](NC(=O)CCCCCCCCCCCCCCCCC(=O)O)C(=O)O)NC(=O)[C@H](CCCNC(=N)N)NC(=O)[C@H](CCCNC(=N)N)NC(=O)[C@H](CC(C)C)NC(=O)[C@H](CC(=O)O)NC(=O)[C@H](C)NC(=O)[C@H](C)NC(=O)[C@H](Cc1ccc(O)cc1)NC(=O)[C@H](CCC(N)=O)NC(=O)[C@H](C)NC(=O)[C@H](CCSC)NC(=O)[C@H](CCC(N)=O)NC(=O)[C@H](CCC(=O)O)NC(=O)[C@@H]1CCCN1C(=O)[C@@H](NC(=O)[C@H](C)NC(=O)[C@H](CC(N)=O)NC(=O)[C@H](CC(=O)O)NC(=O)CNC(=O)[C@@H]1CCCN1C(=O)[C@H](Cc1ccc(O)cc1)NC(=O)[C@@H](NC(=O)[C@@H]1CCCN1C(=O)[C@H](CCC(=O)O)NC(=O)[C@H](CC(C)C)NC(=O)[C@@H]1CCCN1)C(C)C)[C@@H](C)O)C(=O)N[C@@H](CC(N)=O)C(=O)N[C@@H](CCSC)C(=O)N[C@@H](CC(C)C)C(=O)N[C@H](C(=O)N[C@@H](CCCNC(=N)N)C(=O)N1CCC[C@H]1C(=O)N[C@@H](CCCNC(=N)N)C(=O)N[C@@H](Cc1ccc(O)cc1)C(N)=O)[C@@H](C)O [Compound G] (H-PLEPVYPGDNATPEQMAQYAADLRRK([AEEA-AEEA-γGlu-C18 diacid])INMLTRPRY-NH2; N-terminus and C-terminus assumed),96
3,CC[C@H](C)[C@H](NC(=O)[C@H](Cc1ccc(O)cc1)NC(=O)[C@H](CCCCNC(=O)COCCOCCNC(=O)COCCOCCNC(=O)CC[C@H](NC(=O)CCCCCCCCCCCCCCCCC(=O)O)C(=O)O)NC(=O)[C@H](CCCNC(=N)N)NC(=O)[C@H](CC(C)C)NC(=O)[C@H](CC(=O)O)NC(=O)[C@H](C)NC(=O)[C@H](C)NC(=O)[C@H](Cc1ccc(O)cc1)NC(=O)[C@H](CCC(N)=O)NC(=O)[C@H](C)NC(=O)[C@H](CCSC)NC(=O)[C@H](CCC(N)=O)NC(=O)[C@H](CCC(=O)O)NC(=O)[C@@H]1CCCN1C(=O)[C@@H](NC(=O)[C@H](C)NC(=O)[C@H](CC(N)=O)NC(=O)[C@H](CC(=O)O)NC(=O)CNC(=O)[C@@H]1CCCN1C(=O)[C@H](Cc1ccc(O)cc1)NC(=O)[C@@H](NC(=O)[C@@H]1CCCN1C(=O)[C@H](CCC(=O)O)NC(=O)[C@H](CC(C)C)NC(=O)[C@@H]1CCCN1)C(C)C)[C@@H](C)O)C(=O)N[C@@H](CC(N)=O)C(=O)N[C@@H](CCSC)C(=O)N[C@@H](CC(C)C)C(=O)N[C@H](C(=O)N[C@@H](CCCNC(=N)N)C(=O)N1CCC[C@H]1C(=O)N[C@@H](CCCNC(=N)N)C(=O)N[C@@H](Cc1ccc(O)cc1)C(N)=O)[C@@H](C)O [Compound H],62
4,CC[C@H](C)[C@H](NC(=O)[C@H](Cc1ccc(O)cc1)NC(=O)[C@H](CCCNC(=N)N)NC(=O)[C@H](CCCCNC(=O)COCCOCCNC(=O)COCCOCCNC(=O)CC[C@H](NC(=O)CCCCCCCCCCCCCCCCC(=O)O)C(=O)O)NC(=O)[C@H](CC(C)C)NC(=O)[C@H](CC(=O)O)NC(=O)[C@H](C)NC(=O)[C@H](C)NC(=O)[C@H](Cc1ccc(O)cc1)NC(=O)[C@H](CCC(N)=O)NC(=O)[C@H](C)NC(=O)[C@H](CCSC)NC(=O)[C@H](CCC(N)=O)NC(=O)[C@H](CCC(=O)O)NC(=O)[C@@H]1CCCN1C(=O)[C@@H](NC(=O)[C@H](C)NC(=O)[C@H](CC(N)=O)NC(=O)[C@H](CC(=O)O)NC(=O)CNC(=O)[C@@H]1CCCN1C(=O)[C@H](Cc1ccc(O)cc1)NC(=O)[C@@H](NC(=O)[C@@H]1CCCN1C(=O)[C@H](CCC(=O)O)NC(=O)[C@H](CC(C)C)NC(=O)[C@@H]1CCCN1)C(C)C)[C@@H](C)O)C(=O)N[C@@H](CC(N)=O)C(=O)N[C@@H](CCSC)C(=O)N[C@@H](CC(C)C)C(=O)N[C@H](C(=O)N[C@@H](CCCNC(=N)N)C(=O)N1CCC[C@H]1C(=O)N[C@@H](CCCNC(=N)N)C(=O)N[C@@H](Cc1ccc(O)cc1)C(N)=O)[C@@H](C)O [Compound I] (H-PLEPVYPGDNATPEQMAQYAADLK([AEEA-AEEA-γGlu-C18 diacid])RYINMLTRPRY-NH2; N-terminus and C-terminus assumed),88

# Results, then the molecule that gave them:
row,half-life [h],Structure (SMILES)
1,44,CC[C@H](C)[C@H](NC(=O)[C@H](Cc1ccc(O)cc1)NC(=O)[C@H](CCCNC(=N)N)NC(=O)[C@H](CCCNC(=N)N)NC(=O)[C@H](CCCCNC(=O)COCCOCCNC(=O)COCCOCCNC(=O)CC[C@H](NC(=O)CCCCCCCCCCCCCCCCC(=O)O)C(=O)O)NC(=O)[C@H](CC(=O)O)NC(=O)[C@H](C)NC(=O)[C@H](C)NC(=O)[C@H](Cc1ccc(O)cc1)NC(=O)[C@H](CCC(N)=O)NC(=O)[C@H](C)NC(=O)[C@H](CCSC)NC(=O)[C@H](CCC(N)=O)NC(=O)[C@H](CCC(=O)O)NC(=O)[C@@H]1CCCN1C(=O)[C@@H](NC(=O)[C@H](C)NC(=O)[C@H](CC(N)=O)NC(=O)[C@H](CC(=O)O)NC(=O)CNC(=O)[C@@H]1CCCN1C(=O)[C@H](Cc1ccc(O)cc1)NC(=O)[C@@H](NC(=O)[C@@H]1CCCN1C(=O)[C@H](CCC(=O)O)NC(=O)[C@H](CC(C)C)NC(=O)[C@@H]1CCCN1)C(C)C)[C@@H](C)O)C(=O)N[C@@H](CC(N)=O)C(=O)N[C@@H](CCSC)C(=O)N[C@@H](CC(C)C)C(=O)N[C@H](C(=O)N[C@@H](CCCNC(=N)N)C(=O)N1CCC[C@H]1C(=O)N[C@@H](CCCNC(=N)N)C(=O)N[C@@H](Cc1ccc(O)cc1)C(N)=O)[C@@H](C)O [Compound J] (H-PLEPVYPGDNATPEQMAQYAADK([AEEA-AEEA-γGlu-C18 diacid])RRYINMLTRPRY-NH2; N-terminus and C-terminus assumed)
2,30,CC[C@H](C)[C@H](NC(=O)[C@H](Cc1ccc(O)cc1)NC(=O)[C@H](CCCNC(=N)N)NC(=O)[C@H](CCCNC(=N)N)NC(=O)[C@H](CC(C)C)NC(=O)[C@H](CCCCNC(=O)COCCOCCNC(=O)COCCOCCNC(=O)CC[C@H](NC(=O)CCCCCCCCCCCCCCCCC(=O)O)C(=O)O)NC(=O)[C@H](C)NC(=O)[C@H](C)NC(=O)[C@H](Cc1ccc(O)cc1)NC(=O)[C@H](CCC(N)=O)NC(=O)[C@H](C)NC(=O)[C@H](CCSC)NC(=O)[C@H](CCC(N)=O)NC(=O)[C@H](CCC(=O)O)NC(=O)[C@@H]1CCCN1C(=O)[C@@H](NC(=O)[C@H](C)NC(=O)[C@H](CC(N)=O)NC(=O)[C@H](CC(=O)O)NC(=O)CNC(=O)[C@@H]1CCCN1C(=O)[C@H](Cc1ccc(O)cc1)NC(=O)[C@@H](NC(=O)[C@@H]1CCCN1C(=O)[C@H](CCC(=O)O)NC(=O)[C@H](CC(C)C)NC(=O)[C@@H]1CCCN1)C(C)C)[C@@H](C)O)C(=O)N[C@@H](CC(N)=O)C(=O)N[C@@H](CCSC)C(=O)N[C@@H](CC(C)C)C(=O)N[C@H](C(=O)N[C@@H](CCCNC(=N)N)C(=O)N1CCC[C@H]1C(=O)N[C@@H](CCCNC(=N)N)C(=O)N[C@@H](Cc1ccc(O)cc1)C(N)=O)[C@@H](C)O [Compound K] (H-PLEPVYPGDNATPEQMAQYAAK([AEEA-AEEA-γGlu-C18 diacid])LRRYINMLTRPRY-NH2; N-terminus and C-terminus assumed)
3,83,CC[C@H](C)[C@H](NC(=O)[C@H](Cc1ccc(O)cc1)NC(=O)[C@H](CCCNC(=N)N)NC(=O)[C@H](CCCNC(=N)N)NC(=O)[C@H](CC(C)C)NC(=O)[C@H](CC(=O)O)NC(=O)[C@H](CCCCNC(=O)COCCOCCNC(=O)COCCOCCNC(=O)CC[C@H](NC(=O)CCCCCCCCCCCCCCCCC(=O)O)C(=O)O)NC(=O)[C@H](C)NC(=O)[C@H](Cc1ccc(O)cc1)NC(=O)[C@H](CCC(N)=O)NC(=O)[C@H](C)NC(=O)[C@H](CCSC)NC(=O)[C@H](CCC(N)=O)NC(=O)[C@H](CCC(=O)O)NC(=O)[C@@H]1CCCN1C(=O)[C@@H](NC(=O)[C@H](C)NC(=O)[C@H](CC(N)=O)NC(=O)[C@H](CC(=O)O)NC(=O)CNC(=O)[C@@H]1CCCN1C(=O)[C@H](Cc1ccc(O)cc1)NC(=O)[C@@H](NC(=O)[C@@H]1CCCN1C(=O)[C@H](CCC(=O)O)NC(=O)[C@H](CC(C)C)NC(=O)[C@@H]1CCCN1)C(C)C)[C@@H](C)O)C(=O)N[C@@H](CC(N)=O)C(=O)N[C@@H](CCSC)C(=O)N[C@@H](CC(C)C)C(=O)N[C@H](C(=O)N[C@@H](CCCNC(=N)N)C(=O)N1CCC[C@H]1C(=O)N[C@@H](CCCNC(=N)N)C(=O)N[C@@H](Cc1ccc(O)cc1)C(N)=O)[C@@H](C)O [Compound L] (H-PLEPVYPGDNATPEQMAQYAK([AEEA-AEEA-γGlu-C18 diacid])DLRRYINMLTRPRY-NH2; N-terminus and C-terminus assumed)
